What all share (type): in vivo
Assay [1] relates to Green Peach Aphid (Myzus persicae, mixed life stages). Description: Green peach aphid, method a (leaf dip, pepper plants). As to conditions: foliar, 120 h, leaves dipped, after 5 days, read-out: mortality in comparison with untreated controls. The source says:
II.2 Green Peach Aphid (Myzus persicae, Mixed Life Stages)
The active compounds were formulated in 50:50 (vol:vol) acetone:water and 100 ppm Kinetica™ (from Helena Chemical Co.) surfactant.
Pepper plants in the 2nd leaf-pair stage (variety ‘California Wonder’) were infested with approximately 40 laboratory-reared aphids by placing infested leaf sections on top of the test plants. The leaf sections were removed after 24 hr. The leaves of the intact plants were dipped into gradient solutions of the test compound and allowed to dry. Test plants were maintained under fluorescent light (24 hour photoperiod) at about 25° C. and 20-40% relative humidity. Aphid mortality on the treated plants, relative to mortality on check plants, was determined after 5 days.

Assay [2] has as its system Vetch Aphid (Megoura viciae). Put plainly: Vetch aphid, bean leaf disks in microtiterplates. To be noted: foliar, 144 h, test solution 2500 mg/L, leaf disks sprayed, 6 days. As for the experimental part: II.4 Vetch Aphid (Megoura viciae)
The active compounds were formulated in 1:3 (vol:vol) DMSO:water with different concentrations of formulated compounds.
Bean leaf disks were placed into microtiterplates filled with […] and 2.5 ppm OPUS™ (from BASF SE, conazole). The leaf disks were sprayed with 2.5 μl of the test solution and 5 to 8 adult aphids were placed into the microtiterplates which were then closed and kept at 23±1° C. and 50±5% relative humidity under fluorescent light for 6 days. Mortality was assessed on the basis of vital, reproduced aphids. Aphid mortality and fecundity was then visually assessed.

The test system of assay [3] is Green Peach Aphid (Myzus persicae). Put plainly: Green peach aphid through systemic means, artificial diet under membrane. As to conditions: 72 h, pipetted into aphid diet, 3 days, read-out: mortality in comparison with untreated controls. The text has this:
II.6 Activity Against Green Peach Aphid (Myzus persicae)
For evaluating control of green peach aphid (Myzus persicae) through systemic means the test unit consisted of 96-well-microtiter plates containing liquid artificial diet under an artificial membrane.
The compounds were formulated using a solution containing 75% v/v water and 25% v/v DMSO. Different concentrations of formulated compounds were pipetted into the aphid diet, using a custom built pipetter, at two replications. After application, 5 to 8 adult aphids were placed on the artificial membrane inside the microtiter plate wells. The aphids were then allowed to suck on the treated aphid diet and incubated at about 23+1° C. and about 50+5% relative humidity for 3 days. Aphid mortality and fecundity was then visually assessed.

The test system of assay [4] is Cotton Aphid (Aphis gossypii, mixed life stages). Description: Cotton aphid, method a (cotyledon dip). As to conditions: 120 h, cotyledons dipped, counts after 5 days, read-out: mortality in comparison with untreated controls. The source says:
II.1 Cotton Aphid (Aphis gossypii, Mixed Life Stages)
The active compounds were formulated in 50:50 (vol:vol) acetone: water and 100 ppm Kinetica™ (from Helena Chemical Co.) surfactant.
Cotton plants at the cotyledon stage (one plant per pot) were infested by placing a heavily infested leaf from the main colony on top of each cotyledon. The aphids were allowed to transfer to the host plant overnight, and the leaf used to transfer the aphids was removed. The cotyledons were dipped in the test solution and allowed to dry. After 5 days, mortality counts were made.

Assay [5] deals with Cowpea Aphid (Aphis craccivora). Put plainly: Cowpea aphid, sprayed potted cowpea plants. As to conditions: population reduction assessed after 24, 72 and 120 hours, read-out: mortality in comparison with untreated controls. As for the experimental part:
II.3 Cowpea Aphid (Aphis craccivora)
The active compounds were formulated in 50:50 (vol:vol) acetone:water. The test solution was prepared at the day of use.
Potted cowpea plants colonized with 100-150 aphids of various stages were sprayed after the pest population had been recorded. Population reduction was assessed after 24, 72, and 120 hours.

A value given as a limit tells only on which side of the number the result lay.

As a reminder, the mortality is the percentage killed. Turning to `O=C(Nc1cccnc1)c1conc1C1CC1` [Example 15, 3-Cyclopropyl-isoxazole-4-carboxylic acid pyridin-3-ylamide], the mortality at 300 ppm in assay [1], in assay [4] and in assay [5] was not below 90% each time. Besides, the mortality at 2500 µg/mL in assay [2] is not below 90%. Besides, the mortality at 2500 ppm in assay [3] is 100%.

The values above are taken from patent US9125414B2, “Pyridine derivatives compounds for controlling invertebrate pests” (BASF SE, priority 2009, dated 2015).
